Our source for the IC50 and GI50 values is patent US12545685B2 (Daiichi Sankyo Company, Limited, priority 2011, dated 2026).

The term IC50 denotes the concentration that gives 50% inhibition. A low value points to greater potency.

Structures are written as SMILES. Structures can show the parent of a compound that is named as a salt.

The target of assay [1] is T1, Mdm2/p53 binding (GST-Mdm2 / His-p53) (Homo sapiens, UniProt Q00987, L33E).
T1 construct: Mdm2 partial protein having Mdm2 amino acids at positions 25 to 108
The assay can be described thus: Mdm2/p53 binding assay (HTRF, His-p53 and GST-Mdm2). To be noted: His-p53 (aa 1-132) and GST-Mdm2 (aa 25-108, L33E) 6.25 nM each; 25°C, 1 hour; values given as ranges. Put shortly:
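Binding was detected by HTRF (ex 320 nm, em 620/665 nm) after 1 h at 25 °C, using Eu-cryptate anti-GST and XL665 anti-His antibodies. The protein pair was GST-Mdm2 (residues 25–108, L33E) with His-p53 (residues 1–132), each 6.25 nM in the protein dilution. T/C used no-compound control and no-p53 background, and IC50 came from sigmoid fitting.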
Background: In TR-FRET formats the signal depends on donor and acceptor labels being close together.

The test system of assay [2] is human lung cancer-derived cell line NCI-H460 having wild-type p53. Put plainly: Cell growth inhibition assay (MTT). The assay is classed as cell-based. To be noted: 72 h, NCI-H460 cells, 3 days culture, values given as ranges, read-out: 50% growth inhibition concentration (GI50 value). How it is done: A cell growth inhibition assay was conducted using a human lung cancer-derived cell line NCI-H460 having wild-type p53.
NCI-H460 cells were suspended in a medium (RPMI1640 medium containing 10% fetal bovine serum) and the suspension was added in an amount of 500 cells/150 μl/well to a 96-well plate. A test compound was dissolved in DMSO and this solution was diluted with medium to prepare a sample solution (DMSO concentration: 1% or lower). On the next day, medium nonsupplemented with the test compound, or the sample solution, was added in an amount of 50 μl/well. Cells were then cultured at 37° ° C. for 3 days in a 5% CO2 atmosphere.
An MTT assay was conducted immediately after the nonsupplemented medium or the sample solution was added. Another MTT assay was conducted after culturing the cells for 3 days. The MIT assays were conducted as shown below.
A 5 mg/ml MTT (3-(4,5-dimethylthiazol-2-yl)-2,5-diphenyltetrazolium bromide, Sigma-Aldrich Co., M-2128) solution was prepared using a phosphate buffer solution (Dulbecco's Phosphate-buffered Saline). This MIT solution was added in an amount of 20 μl/well. Then the plate was cultured at 37° ° C. for 4 hours in a 5% CO2 atmosphere. The plate was centrifuged at 1200 rpm for 5 minutes and then the culture supernatant was removed by aspiration using a dispenser. DMSO was added in an amount of 150 μl/well to dissolve generated formazan. The plate was stirred using a plate mixer for uniform color development from each well. The absorbance of each well was measured at OD 540 nm and at a reference OD (660 nm) using a plate reader (SpectraMax PLUS384, Molecular Devices, CA, USA).
The OD value measured on the day of adding the sample solution was defined as S. The OD value measured three days after addition of the sample solution was defined as T. The OD value measured three days after addition of the DMSO dilution was defined as C. T/C (%) was determined at each concentration according to the formula shown below in order to prepare a dose response curve, from which 50% growth inhibition concentration (GI50 value) was calculated.

T1 sequence (Q00987 25-108 L33E): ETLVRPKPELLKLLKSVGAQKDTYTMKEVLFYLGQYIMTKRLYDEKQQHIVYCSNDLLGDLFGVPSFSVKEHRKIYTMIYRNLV

Consider `CC1(C)CCC2(CC1)N[C@@H](C(=O)N[C@H]1CC[C@H](O)CC1)[C@H](c1cccc(Cl)c1F)[C@]21C(=O)Nc2cc(Cl)ccc21` (relative stereo) [Example 1, (3′R, 4′S,5′R)-6″-chloro-4′-(3-chloro-2-fluorophenyl)-N-(trans-4-hydroxycyclohexyl)-4,4-dimethyl-2″-oxo-1″,2″-dihydrodispiro[cyclohexane-1,2′-pyrrolidine-3′,3″-indole]-5′-carboxamide], for which the IC50 in assay [1] was in the range of 50 to 100 nM. Besides, the GI50 in assay [2] fell in the range of 100 to 500 nM.
`CC1(C)CCC2(CC1)N[C@@H](C(=O)N[C@H]1CC[C@H](CO)CC1)[C@H](c1cccc(Cl)c1F)[C@]21C(=O)Nc2nc(Cl)ccc21` (relative stereo) [Example 2, (3′R, 4′S,5′R)-6″-chloro-4′-(3-chloro-2-fluorophenyl)-N-[trans-4-(hydroxymethyl)cyclohexyl]-4,4-dimethyl-2″-oxo-1″,2″-dihydrodispiro[cyclohexane-1,2′-pyrrolidine-3′,3″-pyrrolo[2,3-b]pyridine]-5′-carboxamide] displayed an IC50 in assay [1] of 50 to 100 nM. Also, the GI50 in assay [2] lay in the range of 1000 to 5000 nM.
As for `O=C(N[C@H]1CC[C@H](O)CC1)[C@@H]1NC2(CCCCC2)[C@@]2(C(=O)Nc3cc(Cl)ccc32)[C@H]1c1cccc(Cl)c1F` (relative stereo) [Example 4, (3′R, 4′S,5′R)-6″-chloro-4′-(3-chloro-2-fluorophenyl)-N-(trans-4-hydroxycyclohexyl)-2″-oxo-1″,2″-dihydrodispiro[cyclohexane-1,2′-pyrrolidine-3′,3″-indole]-5′-carboxamide], the half-inhibitory concentration (IC50) in assay [1] is 100 to 500 nM. Further, the GI50 in assay [2] fell in the range of 1000 to 5000 nM.
Consider `CC1(C)CCC2(CC1)N[C@@H](C(=O)N[C@H]1CC[C@H](c3nnco3)CC1)[C@H](c1cccc(Cl)c1F)[C@]21C(=O)Nc2nc(Cl)ccc21` (relative stereo) [Example 5, (3′R, 4′S,5′R)-6″-chloro-4′-(3-chloro-2-fluorophenyl)-4,4-dimethyl-N-[trans-4-(1,3,4-oxadiazol-2-yl)cyclohexyl]-2″-oxo-1″,2″-dihydrodispiro[cyclohexane-1,2′-pyrrolidine-3′,3″-pyrrolo[2,3-b]pyridine]-5′-carboxamide], for which the IC50 in assay [1] was in the range of 50 to 100 nM. Further, the GI50 in assay [2] lay in the range of 1000 to 5000 nM.
In assay [1], `CC1(C)CCC2(CC1)N[C@@H](C(=O)N[C@H]1CC[C@H](O)CC1)[C@H](c1cccc(Cl)c1F)[C@]21C(=O)Nc2nc(Cl)ccc21` (relative stereo) [Example 6, (3′R, 4′S,5′R)-6″-chloro-4′-(3-chloro-2-fluorophenyl)-N-(trans-4-hydroxycyclohexyl)-4,4-dimethyl-2″-oxo-1″,2″-dihydrodispiro[cyclohexane-1,2′-pyrrolidine-3′,3″-pyrrolo[2,3-b]pyridine]-5′-carboxamide] showed an IC50 of 1 to 50 nM. Moreover, the GI50 in assay [2] was 1000 to 5000 nM.
In the same order, the values of `CC1(C)CCC2(CC1)N[C@@H](C(=O)N[C@H]1CC[C@H](O)CC1)[C@H](c1ccnc(Cl)c1F)[C@]21C(=O)Nc2cc(Cl)ccc21` (relative stereo) [Example 16, (3′R, 4′S,5′R)-6″-chloro-4′-(2-chloro-3-fluoropyridin-4-yl)-N-(trans-4-hydroxycyclohexyl)-4,4-dimethyl-2″-oxo-1″,2″-dihydrodispiro[cyclohexane-1,2′-pyrrolidine-3′,3″-indole]-5′-carboxamide] are 1 to 50 nM and 100 to 500 nM.
`CC1(C)CCC2(CC1)N[C@@H](C(=O)N[C@H]1CC[C@H](c3nnco3)CC1)[C@H](c1ccnc(Cl)c1F)[C@]21C(=O)Nc2cc(Cl)ccc21` (relative stereo) [Example 18, (3′R, 4′S,5′R)-6″-chloro-4′-(2-chloro-3-fluoropyridin-4-yl)-4,4-dimethyl-N-[trans-4-(1,3,4-oxadiazol-2-yl)cyclohexyl]-2″-oxo-1″,2″-dihydrodispiro[cyclohexane-1,2′-pyrrolidine-3′,3″-indole]-5′-carboxamide] came in with a 50% inhibitory concentration (IC50) in assay [1] of 50 to 100 nM. For the same compound, the GI50 in assay [2] lay in the range of 100 to 500 nM.
With `CC1(C)CCC2(CC1)N[C@@H](C(=O)N[C@H]1CC[C@H](NC(=O)CO)CC1)[C@H](c1cccc(Cl)c1F)[C@]21C(=O)Nc2cc(Cl)ccc21` (relative stereo) [Example 24, (3′R, 4′S,5′R)-6″-chloro-4′-(3-chloro-2-fluorophenyl)-N-{trans-4-[(hydroxyacetyl)amino]cyclohexyl}-4,4-dimethyl-2″-oxo-1″,2″-dihydrodispiro[cyclohexane-1,2′-pyrrolidine-3′,3″-indole]-5′-carboxamide], the IC50 in assay [1] fell in the range of 50 to 100 nM. In assay [2], the GI50 was 100 to 500 nM.
`CC1(C)CCC2(CC1)N[C@@H](C(=O)N[C@H]1CC[C@H](c3nnco3)CC1)[C@H](c1ccnc(Cl)c1F)[C@]21C(=O)Nc2nc(Cl)ccc21` (relative stereo) [Example 26, (3′R, 4′S,5′R)-6″-chloro-4′-(2-chloro-3-fluoropyridin-4-yl)-4,4-dimethyl-N-[trans-4-(1,3,4-oxadiazol-2-yl)cyclohexyl]-2″-oxo-1″,2″-dihydrodispiro[cyclohexane-1,2′-pyrrolidine-3′,3″-pyrrolo[2,3-b]pyridine]-5′-carboxamide] registered an IC50 in assay [1] of 50 to 100 nM. For the same compound, the GI50 in assay [2] lay within 500 to 1000 nM.
Regarding `CC1(C)CCC2(CC1)N[C@@H](C(=O)N[C@@H]1CC[C@@H](C(O)CO)OC1)[C@H](c1ccnc(Cl)c1F)[C@]21C(=O)Nc2cc(Cl)ccc21` (single isomer, unassigned) [Example 90], the GI50 in assay [2] is 100 to 500 nM.
As to `CC1(C)CCC2(CC1)N[C@@H](C(=O)N[C@@H]1CC[C@@H](C(N)=O)OC1)[C@H](c1ccnc(Cl)c1F)[C@]21C(=O)Nc2cc(Cl)ccc21` [Example 70, (3′R, 4′S,5′R)—N-[(3R,6S)-6-carbamoyltetrahydro-2H-pyran-3-yl]-6″-chloro-4′-(2-chloro-3-fluoropyridin-4-yl)-4,4-dimethyl-2″-oxo-1″,2″-dihydrodispiro[cyclohexane-1,2′-pyrrolidine-3′,3″-indole]-5′-carboxamide], the GI50 in assay [2] is below 100 nM.
Take `CC1(C)CCC2(CC1)N[C@@H](C(=O)N[C@@H]1CCC(C)(C(N)=O)OC1)[C@H](c1ccnc(Cl)c1F)[C@]21C(=O)Nc2cc(Cl)ccc21` (stereo partly drawn) [Example 187, (3′R, 4′S,5′R)—N-[(3R)-6-carbamoyl-6-methyltetrahydro-2H-pyran-3-yl]-6″-chloro-4′-(2-chloro-3-fluoropyridin-4-yl)-4,4-dimethyl-2″-oxo-1″,2″-dihydrodispiro[cyclohexane-1,2′-pyrrolidine-3′,3″-indole]-5′-carboxamide]: in assay [1], the IC50 fell in the range of 1 to 50 nM.
Same read-out and setting: the figure for `CC1(C)CCC2(CC1)N[C@@H](C(=O)NC1(C)CC[C@@H](C(N)=O)OC1)[C@H](c1ccnc(Cl)c1F)[C@]21C(=O)Nc2cc(Cl)ccc21` (stereo partly drawn) [Example 189, (3′R, 4′S,5′R)—N-[(6S)-6-carbamoyl-3-methyltetrahydro-2H-pyran-3-yl]-6″-chloro-4′-(2-chloro-3-fluoropyridin-4-yl)-4,4-dimethyl-2″-oxo-1′1,2″-dihydrodispiro[cyclohexane-1,2′-pyrrolidine-3′,3″-indole]-5′-Carboxamide] is 1 to 50 nM; for `C[C@@H](O)[C@@H]1CC[C@@H](NC(=O)[C@@H]2NC3(CCC(C)(C)CC3)[C@@]3(C(=O)Nc4cc(Cl)ncc43)[C@H]2c2ccnc(Cl)c2F)CO1` [Example 192, 6″-Chloro-4′-(2-chloro-3-fluoropyridin-4-yl)-N-{(3R,6S)-6-[(1R)-1-hydroxyethyl]tetrahydro-2H-pyran-3-yl}-4,4-dimethyl-2″-oxo-1″,2″-dihydrodispiro[cyclohexane-1,2′-pyrrolidine-3′,3″-pyrrolo[3,2-c]pyridine]-5′-carboxamide] it is 1 to 50 nM.
Same read-out and setting: next, `CC1(C)CCC2(CC1)N[C@@H](C(=O)N[C@@H]1CC[C@@H](C(N)=O)OC1)[C@H](c1ccnc(Cl)c1F)[C@]21C(=O)Nc2cc(Cl)ccc21` [Example 193, (3′R, 4′S, S′R)—N-[(3R,6S)-6-carbamoyltetrahydro-2H-pyran-3-yl]-6″-chloro-4′-(2-chloro-3-fluoropyridin-4-yl)-4,4-dimethyl-2″-oxo-1″,2″-dihydrodispiro[cyclohexane-1,2′-pyrrolidine-3′,3″-indole]-5′-carboxamide hydrochloride water/2-propanol (IPA) solvate]: 1 to 50 nM.
